Like-named read-outs stand apart in the source and are kept apart here.
How the values were obtained:
estrogen receptor [1] = experiment: estrogen receptor binding class of the 30-compound training set
Source text: Two Spectral Data-Activity Relationship (SDAR) models were established, based on ^13C NMR and EI MS spectra, for 30 estrogenic chemicals whose relative binding affinities (RBA) for the alpha (ERα) and beta (ERβ) estrogen receptors are available.
Strong binders to the estrogen receptor were classified as having a log (RBA) over 0.0, and medium binders to the estrogen receptor were classified as having a log (RBA) of less than or equal to 0.0.

[2] = biological target: T1, alpha (ERα) estrogen receptor (Homo sapiens, UniProt P03372); settings: cited from earlier work
T1 sequence (P03372 1-595): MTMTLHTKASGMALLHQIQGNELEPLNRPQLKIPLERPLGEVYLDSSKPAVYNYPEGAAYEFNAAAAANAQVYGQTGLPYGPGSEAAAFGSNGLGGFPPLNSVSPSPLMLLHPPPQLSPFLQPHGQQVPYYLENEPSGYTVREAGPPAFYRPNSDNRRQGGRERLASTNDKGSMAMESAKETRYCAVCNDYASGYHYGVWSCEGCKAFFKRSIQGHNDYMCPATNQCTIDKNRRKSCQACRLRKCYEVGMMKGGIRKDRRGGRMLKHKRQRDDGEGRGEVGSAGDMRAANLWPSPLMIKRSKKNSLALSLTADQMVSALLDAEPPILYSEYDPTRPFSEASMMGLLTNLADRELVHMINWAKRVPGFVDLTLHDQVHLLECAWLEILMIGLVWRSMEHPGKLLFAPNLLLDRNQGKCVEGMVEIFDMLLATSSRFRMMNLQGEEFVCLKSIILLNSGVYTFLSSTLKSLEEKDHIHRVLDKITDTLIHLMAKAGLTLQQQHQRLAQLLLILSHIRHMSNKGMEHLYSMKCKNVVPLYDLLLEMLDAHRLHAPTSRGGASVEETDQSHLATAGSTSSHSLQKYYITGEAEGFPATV

estrogen receptor [3] = experiment: estrogen receptor relative binding affinity, expanded training set of 107 compounds; settings: input class, 107-compound training set
Source text: The training set included weak estrogen receptor binders in addition to strong and medium estrogen receptor binders.
For this model, strong estrogen receptor binders were defined as having log(RBA)>−0.25 and weak estrogen receptor binders were defined as having log(RBA)<−3.0. Medium estrogen receptor binders were defined as having log(RBA) in between.

estrogen receptor [4] = settings: 107-compound training set; cited from earlier work
[5] = biological target: beta (ERβ) estrogen receptor (Rattus norvegicus, UniProt Q62986); settings: cited from earlier work
[6] = SDAR training input endpoint class, 30 compounds
[7] = log of relative binding affinity, 17-β-estradiol RBA = 100

Sequence of beta (ERβ) estrogen receptor (Q62986 whole entry): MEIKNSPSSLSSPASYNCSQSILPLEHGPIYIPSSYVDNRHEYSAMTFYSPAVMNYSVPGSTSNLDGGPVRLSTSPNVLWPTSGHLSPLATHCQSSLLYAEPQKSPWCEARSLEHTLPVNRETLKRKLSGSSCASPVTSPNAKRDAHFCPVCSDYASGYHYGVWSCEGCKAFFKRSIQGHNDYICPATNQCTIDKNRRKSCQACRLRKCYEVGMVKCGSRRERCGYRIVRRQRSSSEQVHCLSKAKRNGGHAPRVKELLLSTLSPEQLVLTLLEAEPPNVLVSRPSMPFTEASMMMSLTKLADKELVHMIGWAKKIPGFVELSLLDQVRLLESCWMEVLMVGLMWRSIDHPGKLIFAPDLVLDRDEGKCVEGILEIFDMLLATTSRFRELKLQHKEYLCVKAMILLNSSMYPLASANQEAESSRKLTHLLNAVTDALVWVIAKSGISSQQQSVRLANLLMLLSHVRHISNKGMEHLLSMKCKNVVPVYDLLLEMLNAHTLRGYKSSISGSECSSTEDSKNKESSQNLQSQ

Structure (SMILES)	RBA class in words (estrogen receptor [1])	Class Input (estrogen receptor [1]; [6])	Log-(RBA) alpha [2]	Class (estrogen receptor [3])	log RBA (estrogen receptor [4])	Log-(RBA) beta [5]	Class Input (estrogen receptor [1])	Log-(RBA) alpha [2, 7]	Log-(RBA) beta [5, 7]
C[C@]12CC[C@@H](O)C[C@@H]1CC[C@@H]1[C@@H]2CC[C@]2(C)[C@@H](O)CC[C@@H]12 [3α-Androstanediol, 5α-Androstane-3α,17β-diol]	medium	M (medium binders to the estrogen receptor were classified as having a log (RBA) of less than or equal to 0.0)	−1.15	M (Medium estrogen receptor binders were defined as having log(RBA) in between)	−2.67	−0.52	–	–	–
C[C@]12CC[C@H](O)C[C@@H]1CC[C@@H]1[C@@H]2CC[C@]2(C)[C@@H](O)CC[C@@H]12 [3β-Androstanediol, 5α-Androstane-3β,17β-diol]	–	–	0.48	M (Medium estrogen receptor binders were defined as having log(RBA) in between)	−0.92	0.85	S (key: Strong binders to the estrogen receptor were classified as having a log (RBA) over 0.0; M: medium binders to the estrogen receptor were classified as having a log (RBA) of less than or equal to 0.0)	–	–
CC(C)(c1ccc(O)cc1)c1ccc(O)cc1 [Bisphenol A, 4,4′-isopropylidenediphenol]	–	M (medium binders to the estrogen receptor were classified as having a log (RBA) of less than or equal to 0.0)	–	M (Medium estrogen receptor binders were defined as having log(RBA) in between)	−2.11	–	–	−1.30	−0.48
C/C=C(/C(=C/C)c1ccc(O)cc1)c1ccc(O)cc1 [Dienestrol]	–	S (Strong binders to the estrogen receptor were classified as having a log (RBA) over 0.0)	–	S (strong estrogen receptor binders were defined as having log(RBA)>−0.25)	1.57	–	–	2.35	2.61
CC[C@H](c1ccc(O)cc1)[C@@H](CC)c1ccc(O)cc1 [Hexestrol]	–	S (Strong binders to the estrogen receptor were classified as having a log (RBA) over 0.0)	–	S (strong estrogen receptor binders were defined as having log(RBA)>−0.25)	2.48	–	–	2.48	2.37
COc1ccc(C(c2ccc(OC)cc2)C(Cl)(Cl)Cl)cc1 [Methoxychlor]	–	M (medium binders to the estrogen receptor were classified as having a log (RBA) of less than or equal to 0.0)	−2.00	–	−3.2	−0.89	–	–	–
C#C[C@]1(O)CC[C@H]2[C@@H]3CCc4cc(O)ccc4[C@H]3[C@@H](OC)C[C@@]21C [Moxestrol]	–	S (Strong binders to the estrogen receptor were classified as having a log (RBA) over 0.0)	–	S (strong estrogen receptor binders were defined as having log(RBA)>−0.25)	1.14	–	–	1.63	0.70
CC(=O)[C@H]1CC[C@H]2[C@@H]3CCC4=CC(=O)CC[C@]4(C)[C@H]3CC[C@]12C [Progesterone]	–	M (medium binders to the estrogen receptor were classified as having a log (RBA) of less than or equal to 0.0)	–	W (weak estrogen receptor binders were defined as having log(RBA)<−3.0)	–	–	–	−3.50	−3.50
